Read-outs that look alike come from different tables or passages of the source.
Legend:
bromodomain = test: at least one of the bromodomain cell assays of Example 57; format: cell-based; details: at least one of the bromodomain cell assays described in Example 57; read-out: IC50 in at least one of the bromodomain cell assays
MV-4-11 cells = test: Oncology cell growth assay MV-4-11 (CellTiter Glo); format: cell-based; details: Homo sapiens, MV4-11, 72 h, read-out: Cell activity (IC50 μM) MV-4-11 3d-Growth
Summary of the method: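 Growth read by CellTiter Glo luminescence after 72 h compound treatment of MLL-AF4-bearing MV-4-11 cells (3000/well). Titration: 8 points, 1:3 steps, maximum 10 μM, 0.2% DMSO final. Data normalized to DMSO wells, four-parameter fit gives pIC50.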

BRD4-BD12 (1-477) = BRD4-BD12 (1-477) (Homo sapiens (Human), UniProt O60885); test: Alphascreen binding assay BRD4-BD12; details: BRD4(1 2) H4; read-out: Biochemical activity (IC50 μM) BRD4(1 2) H4
Summary of the method: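 In this competition format, compounds displace a biotinylated tetra-acetyl H4 peptide from E. coli-expressed human BRD4 bromodomain constructs captured on nickel chelate beads. The reaction runs at pH 7.5 with 2 mM DTT and detergent for 1 h at room temperature before a 30 min bead step.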

Structure (SMILES)	IC50 (bromodomain)	IC50 (MV-4-11 cells; MV-4-11, 3d growth)	IC50 (BRD4-BD12 (1-477))	IC50 (MV-4-11 cells)
Cc1noc(C)c1-c1cnc2c(-c3ccc(C(=O)O)cc3)cn(CC3CC(F)(F)C3)c2c1 [P-0432, 4-[1-[(3,3-difluorocyclobutyl)methyl]-6-(3,5-dimethylisoxazol-4-yl)pyrrolo[3,2-b]pyridin-3-yl]benzoic acid]	< 10000 nM	< 1 µM	< 1 µM	–
Cc1nnn(C)c1-c1cnc2c(-c3cnn(C(F)F)c3)cn(CC3(F)CCC(F)(F)CC3)c2c1 [P-0419, 3-[1-(difluoromethyl)pyrazol-4-yl]-6-(3,5-dimethyltriazol-4-yl)-1-[(1,4,4-trifluorocyclohexyl)methyl]pyrrolo[3,2-b]pyridine]	< 10000 nM	–	< 1 µM	< 1 µM
Cc1noc(C)c1-c1cnc2c(-c3cnn(CC(F)(F)F)c3)cn([C@@H](C)c3ccccn3)c2c1 [P-0512, 3,5-dimethyl-4-[1-[(1S)-1-(2-pyridyl)ethyl]-3-[1-(2,2,2-trifluoroethyl)pyrazol-4-yl]pyrrolo[3,2-b]pyridin-6-yl]isoxazole]	< 10000 nM	< 1 µM	< 1 µM	–
Cc1noc(C)c1-c1cnc2c(-c3cccc(S(N)(=O)=O)c3)cn(CC3(F)CCCCC3)c2c1 [P-0475, 3-[6-(3,5-dimethylisoxazol-4-yl)-1-[(1-fluorocyclohexyl)methyl]pyrrolo[3,2-b]pyridin-3-yl]benzenesulfonamide]	< 10000 nM	< 1 µM	< 1 µM	–
CNC(=O)Nc1ccc(-c2cn([C@@H](C)c3ccccn3)c3cc(-c4c(C)noc4C)cnc23)cc1 [P-0563, 1-[4-[6-(3,5-dimethylisoxazol-4-yl)-1-[(1S)-1-(2-pyridyl)ethyl]pyrrolo[3,2-b]pyridin-3-yl]phenyl]-3-methyl-urea]	< 10000 nM	< 1 µM	< 1 µM	–
CNS(=O)(=O)c1ccc(-c2cn(CC3(F)CCCCC3)c3cc(-c4c(C)noc4C)cnc23)cc1 [P-0378, 4-[6-(3,5-dimethylisoxazol-4-yl)-1-[(1-fluorocyclohexyl)methyl]pyrrolo[3,2-b]pyridin-3-yl]-N-methyl-benzenesulfonamide]	< 10000 nM	–	< 1 µM	< 1 µM
[2H]C([2H])(C1CCC(F)(F)CC1)n1cc(-c2ccc(C(=O)O)cc2)c2ncc(-c3c(C)noc3C)cc21 [P-0363, 4-[1-[dideuterio-(4,4-difluorocyclohexyl)methyl]-6-(3,5-dimethylisoxazol-4-yl)pyrrolo[3,2-b]pyridin-3-yl]benzoic acid]	< 10000 nM	–	< 1 µM	< 1 µM
Cc1noc(C)c1-c1cnc2c(-c3cccc(S(=O)(=O)NC4CC4)c3)cn(CC3(F)CCCCC3)c2c1 [P-0490, N-cyclopropyl-3-[6-(3,5-dimethylisoxazol-4-yl)-1-[(1-fluorocyclohexyl)methyl]pyrrolo[3,2-b]pyridin-3-yl]benzenesulfonamide]	< 10000 nM	< 1 µM	< 1 µM	–
Cc1noc(C)c1-c1cnc2c(-c3ccc(-c4nnn[nH]4)cc3)cn([C@@H](C)c3ccccn3)c2c1 [P-0568, 3,5-dimethyl-4-[1-[(1S)-1-(2-pyridyl)ethyl]-3-[4-(1H-tetrazol-5-yl)phenyl]pyrrolo[3,2-b]pyridin-6-yl]isoxazole]	< 10000 nM	< 1 µM	< 1 µM	–
Cc1noc(C)c1-c1cnc2c(-c3ccc(C(=O)OC(C)C)cc3)cn(CC3CCCCC3)c2c1 [P-0708, isopropyl 4-[1-(cyclohexylmethyl)-6-(3,5-dimethylisoxazol-4-yl)pyrrolo[3,2-b]pyridin-3-yl]benzoate]	< 10000 nM	< 1 µM	< 1 µM	–
CNC(=O)c1ccc(-n2cc(CC3CCC(F)(F)CC3)c3cc(-c4c(C)noc4C)cnc32)nc1 [P-0532, 6-[3-[(4,4-difluorocyclohexyl)methyl]-5-(3,5-dimethylisoxazol-4-yl)pyrrolo[2,3-b]pyridin-1-yl]-N-methyl-pyridine-3-carboxamide]	< 10000 nM	< 1 µM	< 1 µM	–
Cc1noc(C)c1-c1cnc2c(-c3cnn(C(F)F)c3)cn(Cc3ncccn3)c2c1 [P-0350, 4-[3-[1-(difluoromethyl)pyrazol-4-yl]-1-(pyrimidin-2-ylmethyl)pyrrolo[3,2-b]pyridin-6-yl]-3,5-dimethyl-isoxazole]	< 10000 nM	–	< 1 µM	< 1 µM
CCn1cc(-c2cn(CC3CCC(F)(F)CC3)c3cc(-c4c(C)nnn4C)cnc23)cn1 [P-0427, 1-[(4,4-difluorocyclohexyl)methyl]-6-(3,5-dimethyltriazol-4-yl)-3-(1-ethylpyrazol-4-yl)pyrrolo[3,2-b]pyridine]	< 10000 nM	< 1 µM	< 1 µM	–
Cc1noc(C)c1-c1cnc2c(I)cn(CC3CCC4(CC3)CC4)c2c1 [P-0580, 4-[3-iodo-1-(spiro[2.5]octan-6-ylmethyl)pyrrolo[3,2-b]pyridin-6-yl]-3,5-dimethyl-isoxazole]	< 10000 nM	< 1 µM	< 1 µM	–
Cc1noc(C)c1-c1cnc2c(-c3ccc(NC(N)=O)cc3)cn(CC3(F)CCCCC3)c2c1 [P-0521, [4-[6-(3,5-dimethylisoxazol-4-yl)-1-[(1-fluorocyclohexyl)methyl]pyrrolo[3,2-b]pyridin-3-yl]phenyl]urea]	< 10000 nM	< 1 µM	< 1 µM	–
[2H]C([2H])(C1CC(F)(F)C1)n1cc(-c2cnc(C3CC3)nc2)c2ncc(-c3c(C)noc3C)cc21 [P-0259, 4-[3-(2-cyclopropylpyrimidin-5-yl)-1-[dideuterio-(3,3-difluorocyclobutyl)methyl]pyrrolo[3,2-b]pyridin-6-yl]-3,5-dimethyl-isoxazole]	< 10000 nM	–	< 1 µM	< 1 µM
Cc1noc(C)c1-c1cnc2c(-c3ccc(C(=O)O)s3)cn(CC3(F)CCCCC3)c2c1 [P-0478, 5-[6-(3,5-dimethylisoxazol-4-yl)-1-[(1-fluorocyclohexyl)methyl]pyrrolo[3,2-b]pyridin-3-yl]thiophene-2-carboxylic acid]	< 10000 nM	< 1 µM	< 1 µM	–
Cc1noc(C)c1-c1cnc2c(-c3cn[nH]c3)cn(CC3CCC(F)(F)CC3)c2c1 [P-0392, 4-[1-[(4,4-difluorocyclohexyl)methyl]-3-(1H-pyrazol-4-yl)pyrrolo[3,2-b]pyridin-6-yl]-3,5-dimethyl-isoxazole]	< 10000 nM	–	< 1 µM	< 1 µM
Cc1cc(-c2cnc3ccn(CC4CCC(F)(F)CC4)c3c2)cnn1 [P-0286]	< 10000 nM	–	< 1 µM	10 to 200 µM
Cc1noc(C)c1-c1cnc2c(-c3ccc(C#N)nc3)cn([C@@H](C)c3ccccn3)c2c1 [P-0595, 5-[6-(3,5-dimethylisoxazol-4-yl)-1-[(1S)-1-(2-pyridyl)ethyl]pyrrolo[3,2-b]pyridin-3-yl]pyridine-2-carbonitrile]	< 10000 nM	< 1 µM	< 1 µM	–
Cc1noc(C)c1-c1cnc2c(-c3ccnc(C4CC4)c3)cn(CC3CCC(F)(F)CC3)c2c1 [P-0407, 4-[3-(2-cyclopropyl-4-pyridyl)-1-[(4,4-difluorocyclohexyl)methyl]pyrrolo[3,2-b]pyridin-6-yl]-3,5-dimethyl-isoxazole]	< 10000 nM	–	< 1 µM	< 1 µM
Cc1noc(C)c1-c1cnc2c(-c3ccc(C#N)cc3)cn([C@@H](C)c3ccccn3)c2c1 [P-0573, 4-[6-(3,5-dimethylisoxazol-4-yl)-1-[(1S)-1-(2-pyridyl)ethyl]pyrrolo[3,2-b]pyridin-3-yl]benzonitrile]	< 10000 nM	< 1 µM	< 1 µM	–
Cc1noc(C)c1-c1cnc2c(-c3cnn(CC(F)(F)F)c3)cn([C@H](C)c3ccccn3)c2c1 [P-0513, 3,5-dimethyl-4-[1-[(1R)-1-(2-pyridyl)ethyl]-3-[1-(2,2,2-trifluoroethyl)pyrazol-4-yl]pyrrolo[3,2-b]pyridin-6-yl]isoxazole]	< 10000 nM	< 1 µM	< 1 µM	–
Cc1ccc(-c2cn(CC3(C)CCOCC3)c3cc(-c4c(C)noc4C)cnc23)cc1 [P-0794, 3,5-dimethyl-4-[1-[(4-methyltetrahydropyran-4-yl)methyl]-3-(p-tolyl)pyrrolo[3,2-b]pyridin-6-yl]isoxazole]	< 10000 nM	1 to 10 µM	< 1 µM	–
Cc1noc(C)c1-c1cnc2c(-c3ccc(C(=O)O)cc3)cn(CC3CCCCCC3)c2c1 [P-0586, 4-[1-(cycloheptylmethyl)-6-(3,5-dimethylisoxazol-4-yl)pyrrolo[3,2-b]pyridin-3-yl]benzoic acid]	< 10000 nM	< 1 µM	< 1 µM	–
CNC(=O)c1ccc(-c2cn(CC3(F)CCCCC3)c3cc(-c4c(C)noc4C)cnc23)cc1 [P-0465, 4-[6-(3,5-dimethylisoxazol-4-yl)-1-[(1-fluorocyclohexyl)methyl]pyrrolo[3,2-b]pyridin-3-yl]-N-methyl-benzamide]	< 10000 nM	< 1 µM	< 1 µM	–
COc1ncc(-c2cn(CC3(F)CCCCC3)c3cc(-c4c(C)noc4C)cnc23)cn1 [P-0464, 4-[1-[(1-fluorocyclohexyl)methyl]-3-(2-methoxypyrimidin-5-yl)pyrrolo[3,2-b]pyridin-6-yl]-3,5-dimethyl-isoxazole]	< 10000 nM	< 1 µM	< 1 µM	–

— patent US10519177B2, “Heterocyclic compounds and uses thereof” (Plexxikon Inc., priority 2013, dated 2019)
